Source: patent publication US5591758A, “Organic nitrates, processes for their preparation and their use in the treatment of cardiovascular diseases” (Laboratoires Hoechst, SA, priority 1991, dated 1997)
pIC50: −log10 of the molar value. Where a name gives a salt, the structure may show the parent alone. Values belong to the compound of their own block, whether it stands above or below them.

Tests used:
anesthetised dogs = experiment: Haemodynamic effects on anesthetised dogs; type: in vivo, dogs (labrador/harrier cross)
Protocol: Haemodynamic effects of the compounds according to the invention on anesthetised pigs or dogs
The dogs, weighing between 16 and 26 kg, are the progeny of a labrador/harrier cross.
In the case of dogs the anesthesia is induced by sodium pentobarbitol (45 mg/jg i.v.) and maintained with an i.v. perfusion (flow rate of 8 mg/kg/h).
The pigs or dogs are placed under artificial respiration in ambient air. Analysis of the blood gases (pO2, pCO2) is carried out at regular intervals and oxygen can be supplied via the respirator, if necessary.
The haemodynamic parameters recorded include the left ventricular pressure (LVP; Millar PC350 Tip catheter inserted via the carotid artery), systemic blood pressure (BPs, BPd; full catheter in a femoral artery), the end pressure of the left ventricular diastole (LVEDP), the ventricular contractility (LVPdp/dtmax) and the heart rate (HR).
Following an equilibration period of the order of 45 minutes, the compounds studied are administered intraduodenally (i.d.) or intraveinously (i.v.) to several animals (1 to 4). The haemodynamic variables are recorded continuously for 1 to 3 hours, as a function of the period of action of the compound.
The effects of the compounds studied are shown as the absolute difference with respect to the base value (bv) measured before administration of the compounds and are shown in Table VII (a,b,c).
An antianginal activity is estimated by a fall in the BPs and the LVEDP (fall in venous return).

thoracic aorta = experiment: Vasorelaxant effect on isolated vessels (rat thoracic aorta rings without endothelium, precontracted with noradrenalin); set-up: species or system Wistar rats; conditions: for Emax: Rattus norvegicus, maximum inhibition of noradrenalin effect, 10^-8 to 10^-4 M substance, read-out: Maximum Relaxation; for pIC50: rat aorta, 10^-7 M noradrenalin contraction
Protocol: Vasorelaxant effect of the compounds according to the invention on isolated vessels.
Adult Wistar rats weighing between 250 and 350 g are anaesthetised by intraperitoneal injection of sodium pentobarbital (30 mg/kg). The thoracic aorta is rapidly removed and placed in a refrigerated and oxygenated solution of bicarbonate buffer of the Krebs-Ringer type (composition [mM]: NaCl, 118; KCl, 4.7; CaCl2, 2.5; MgSO4, 1.2; KH2 PO4, 1.2; NaHCO3, 25.0; disodium calcium salt of EDTA, 0.026; glucose 11.1). The aorta is dissected with the aim of removing the connective tissue and then cut into 6 rings (length 5-10 mm). The endothelium is removed by moderate abrasion of the intimal surface of the aortic segments with the aid of a pair of tweezers. These segments are then placed between two hooks in an isolated organ cell filled with 25 ml of bicarbonate buffer (pH 7.4), thermostat-controlled at 37° C. and oxygenated with the aid of a 95% O2 /5% CO2 mixture (pH 7.4). One of the hooks is fixed to a fixed point, while the second is connected to a transducer with the aim of measuring the variations in isometric voltage (expressed in grams). After an equilibration period of 30 min., the segments are progressively withdrawn so as to attain the level of base voltage for which the contractor response to noradrenalin (10^-7 M) is maximum (optimum voltage; average 2 g). The absence of endothelium is verified by addition of a single concentration of acetylcholine (10^-6 M), after precontraction of the vessels by noradrenalin (10^-7 M). The integrity of the vascular smooth muscle is also verified by adding a single concentration of a vasodilator whose response is independent of the presence of the endothelium, SIN-1 (10^-5 M). After this initial procedure, the aortas are washed, equilibrated for a period of 30 min and then recontracted (10^-7 M noradrenalin). The relaxant effect of the substance to be tested is then evaluated by adding increasing concentrations of this substance (from 10^-8 to 10^-4 M). The maximum inhibition of the concentration caused by noradrenalin (expressed as a percentage) is then calculated ("maximum relaxation"). When this maximum relaxation is greater than 50%, the concentration of substance tested producing a 50% inhibition of the maximum contraction (IC50) is calculated. Table V below collates the IC50 and the maximum relaxation percentages for the various compounds tested.

Compound: O=C(O[C@@H]1CO[C@H]2[C@@H]1OC[C@@H]2O[N+](=O)[O-])[C@@H]1CSCN1 [Compound 25, 5-O-[(4-L-Thiazolidinyl)carbonyl]-2-O-nitro-1,4:3,6-dianhydro-D-glucitol monohydrochloride]
BPs (min), period of action (anesthetised dogs; dogs, 10 mg/kg i.d.): > 60 min
BPs, difference to base value (anesthetised dogs; dogs, 10 mg/kg i.d.): -30 mmHg
LVEDP (min), period of action (anesthetised dogs; dogs, 10 mg/kg i.d.): > 60 min
LVEDP, difference to base value (anesthetised dogs; dogs, 10 mg/kg i.d.): -3,0 mmHg
Emax (thoracic aorta): 35%
pIC50 (thoracic aorta): < 4.00

Compound: CC(=O)NCSC[C@H](NC(=O)OC(C)(C)C)C(=O)O[C@@H]1CO[C@H]2[C@@H]1OC[C@@H]2O[N+](=O)[O-] [Compound 26, S-[(Acetylamino)methyl]-N-[(t-butoxy)carbonyl]-L-cysteine ester of 2-O-nitro-1,4:3,6-dianhydro-D-glucitol]
BPs (min), period of action (anesthetised dogs; dogs, 10 mg/kg i.v.): > 90 min
BPs, difference to base value (anesthetised dogs; dogs, 10 mg/kg i.v.): -10 mmHg
LVEDP (min), period of action (anesthetised dogs; dogs, 10 mg/kg i.v.): > 90 min
LVEDP, difference to base value (anesthetised dogs; dogs, 10 mg/kg i.v.): 2,0 mmHg
Emax (thoracic aorta): 70%
pIC50 (thoracic aorta): 4.10

Compound: CC(=O)NCSC[C@H](N)C(=O)O[C@@H]1CO[C@H]2[C@@H]1OC[C@@H]2O[N+](=O)[O-] [Compound 27, S-[(Acetylamino)methyl]-L-cysteine ester of 2-O-nitro-1,4:3,6-dianhydro-D-glucitol monohydrochloride]
BPs (min), period of action (anesthetised dogs; dogs, 3 mg/kg i.v.): > 90 min
BPs, difference to base value (anesthetised dogs; dogs, 3 mg/kg i.v.): -15 mmHg
LVEDP (min), period of action (anesthetised dogs; dogs, 3 mg/kg i.v.): > 90 min
LVEDP, difference to base value (anesthetised dogs; dogs, 3 mg/kg i.v.): -1,0 mmHg
Emax (thoracic aorta): 14%
pIC50 (thoracic aorta): < 4.00

Compound: CC(C)(C)OC(=O)N[C@@H](CSSc1ccccc1[N+](=O)[O-])C(=O)N[C@H]1CO[C@H]2[C@@H]1OC[C@@H]2O[N+](=O)[O-] [Compound 35, S-[(2-Nitrophenyl)thio]-N-[(t-butoxy)carbonyl]-L-cysteine amide of 5-amino-5-deoxy-2-O-nitro-1,4:3,6-dianhydro-L-iditol]
BPs (min), period of action (anesthetised dogs; dogs, 3 mg/kg i.v.): > 30 min
BPs, difference to base value (anesthetised dogs; dogs, 3 mg/kg i.v.): -10 mmHg
LVEDP (min), period of action (anesthetised dogs; dogs, 3 mg/kg i.v.): 0 min
LVEDP, difference to base value (anesthetised dogs; dogs, 3 mg/kg i.v.): 0,0 mmHg
Emax (thoracic aorta): 46%
pIC50 (thoracic aorta): 4.00

Compound: CSCC[C@H](NC(=O)OC(C)(C)C)C(=O)N[C@H]1CO[C@H]2[C@@H]1OC[C@@H]2O[N+](=O)[O-] [Compound 37, N-[(t-Butoxy)carbonyl]-L-methionine amide of 5-amino-5-deoxy-2-O-nitro-1,4:3,6-dianhydro-L-iditol]
BPs (min), period of action (anesthetised dogs; dogs, 10 mg/kg i.v.): > 90 min
BPs, difference to base value (anesthetised dogs; dogs, 10 mg/kg i.v.): -25 mmHg
LVEDP (min), period of action (anesthetised dogs; dogs, 10 mg/kg i.v.): 30 min
LVEDP, difference to base value (anesthetised dogs; dogs, 10 mg/kg i.v.): -2,0 mmHg
Emax (thoracic aorta): 100%
pIC50 (thoracic aorta): 4.89

Compound: O=C(N[C@H]1CO[C@H]2[C@@H]1OC[C@H]2O[N+](=O)[O-])[C@@H]1CSCN1 [Compound 40, 2-[[(4-L-Thiazolidinyl)carbonyl]amino]-2-deoxy-5-O-nitro-1,4:3,6-dianhydro-D-glucitol monohydrochloride]
BPs (min), period of action (anesthetised dogs; dogs, 3 mg/kg i.v.): > 90 min
BPs, difference to base value (anesthetised dogs; dogs, 3 mg/kg i.v.): -10 mmHg
LVEDP (min), period of action (anesthetised dogs; dogs, 3 mg/kg i.v.): > 90 min
LVEDP, difference to base value (anesthetised dogs; dogs, 3 mg/kg i.v.): -1,0 mmHg
Emax (thoracic aorta): 38%
pIC50 (thoracic aorta): < 4.00

Compound: CC(=O)NCSC[C@H](NC(=O)OC(C)(C)C)C(=O)N[C@H]1CO[C@H]2[C@@H]1OC[C@H]2O[N+](=O)[O-] [Compound 41, S-[(Acetylamino)methyl]-N-[(t-butoxy)carbonyl]-L-cysteine amide of 2-amino-2-deoxy-5-O-nitro-1,4:3,6-dianhydro-D-glucitol]
BPs (min), period of action (anesthetised dogs; dogs, 3 mg/kg i.d.): > 180 min
BPs, difference to base value (anesthetised dogs; dogs, 3 mg/kg i.d.): -25 mmHg
LVEDP (min), period of action (anesthetised dogs; dogs, 3 mg/kg i.d.): 0 min
LVEDP, difference to base value (anesthetised dogs; dogs, 3 mg/kg i.d.): 0,0 mmHg
Emax (thoracic aorta): 70%
pIC50 (thoracic aorta): 4.20

Compound: CSCC[C@H](NC(=O)OC(C)(C)C)C(=O)N[C@H]1CO[C@H]2[C@@H]1OC[C@H]2O[N+](=O)[O-] [Compound 43, N-[(t-Butoxy)carbonyl]-L-methionine amide of 2-amino-2-deoxy-5-O-nitro-1,4:3,6-dianhydro-D-glucitol]
BPs (min), period of action (anesthetised dogs; dogs, 10 mg/kg i.v.): 90 min
BPs, difference to base value (anesthetised dogs; dogs, 10 mg/kg i.v.): -20 mmHg
LVEDP (min), period of action (anesthetised dogs; dogs, 10 mg/kg i.v.): 60 min
LVEDP, difference to base value (anesthetised dogs; dogs, 10 mg/kg i.v.): -1,0 mmHg
Emax (thoracic aorta): 80%
pIC50 (thoracic aorta): 4.49

Compound: C[C@H](NC(=O)[C@@H]1CSCN1C(=O)OC(C)(C)C)C(=O)N[C@H]1CO[C@H]2[C@@H]1OC[C@@H]2O[N+](=O)[O-] [Compound 61, 5-[[2-[[(3-t-butoxycarbonyl-4-n-thiazolidinyl)carbonyl]amino]-1-((2S)-2-methyl)-oxoethyl]amino]-5-deoxy-2-O-nitro-1,4:3,6-dianhydro-L-iditol]
BPs (min), period of action (anesthetised dogs; dogs, 3 mg/kg i.d.): > 180 min
BPs, difference to base value (anesthetised dogs; dogs, 3 mg/kg i.d.): -25 mmHg
LVEDP (min), period of action (anesthetised dogs; dogs, 3 mg/kg i.d.): > 180 min
LVEDP, difference to base value (anesthetised dogs; dogs, 3 mg/kg i.d.): -1,5 mmHg
Emax (thoracic aorta): 100%
pIC50 (thoracic aorta): 4.49

Compound: CC(C)[C@H](NC(=O)[C@@H]1CSCN1C(=O)OC(C)(C)C)C(=O)N[C@H]1CO[C@H]2[C@@H]1OC[C@@H]2O[N+](=O)[O-] [Compound 63, 5-[[2-[[(3-t-butoxycarbonyl-4-L-thiazolidinyl)carbonyl]amino]-1-((2S)-2-isopropyl)-oxoethyl]amino]-5-deoxy-2-O-nitro-1,4:3,6-dianhydro-L-iditol]
BPs (min), period of action (anesthetised dogs; dogs, 3 mg/kg i.v.): > 60 min
BPs, difference to base value (anesthetised dogs; dogs, 3 mg/kg i.v.): -20 mmHg
LVEDP (min), period of action (anesthetised dogs; dogs, 3 mg/kg i.v.): 60 min
LVEDP, difference to base value (anesthetised dogs; dogs, 3 mg/kg i.v.): -1,0 mmHg
Emax (thoracic aorta): 70%
pIC50 (thoracic aorta): 4.15

Now from value to compound, other results behind:

pIC50 (thoracic aorta): 4.48
Compound: CC(=O)NCSC[C@H](N)C(=O)N[C@H]1CO[C@H]2[C@@H]1OC[C@H]2O[N+](=O)[O-] [Compound 42, S-[(Acetylamino)methyl]-L-cysteine amide of 2-amino-2-deoxy-5-O-nitro-1,4:3,6-dianhydro-D-glucitol monohydrochloride]
BPs (min), period of action (anesthetised dogs; dogs, 10 mg/kg i.v.): > 90 min
BPs, difference to base value (anesthetised dogs; dogs, 10 mg/kg i.v.): -10 mmHg
LVEDP (min), period of action (anesthetised dogs; dogs, 10 mg/kg i.v.): 0 min
LVEDP, difference to base value (anesthetised dogs; dogs, 10 mg/kg i.v.): 0,0 mmHg
Emax (thoracic aorta): 92%

pIC50 (thoracic aorta): 4.42
Compound: O=C(CNC(=O)[C@@H]1CCCN1)N[C@H]1CO[C@H]2[C@@H]1OC[C@@H]2O[N+](=O)[O-] [Compound 49, 5-[[2-[[((2S)-2-pyrrolidinyl)carbonyl]amino]-1-oxoethyl]amino]-5-deoxy-2-O-nitro-1,4:3,6-dianhydro-L-iditol monohydrochloride]
BPs (min), period of action (anesthetised dogs; dogs, 1,1 mg/kg i.d.): > 240 min
BPs, difference to base value (anesthetised dogs; dogs, 1,1 mg/kg i.d.): -32 mmHg
Emax (thoracic aorta): 100%

pIC50 (thoracic aorta): 4.06
Compound: CC(C)(C)OC(=O)N1CSC[C@H]1C(=O)NCC(=O)N[C@H]1CO[C@H]2[C@@H]1OC[C@@H]2O[N+](=O)[O-] [Compound 60]
BPs (min), period of action (anesthetised dogs; dogs, 3 mg/kg i.d.): > 60 min
BPs, difference to base value (anesthetised dogs; dogs, 3 mg/kg i.d.): -15 mmHg
LVEDP (min), period of action (anesthetised dogs; dogs, 3 mg/kg i.d.): 0 min
LVEDP, difference to base value (anesthetised dogs; dogs, 3 mg/kg i.d.): 0,0 mmHg
Emax (thoracic aorta): 53%

pIC50 (thoracic aorta): 4.26
Compound: C[C@H](NC(=O)[C@@H]1CSCN1)C(=O)N[C@H]1CO[C@H]2[C@@H]1OC[C@@H]2O[N+](=O)[O-] [Compound 62, 5-[[2-[[(4-L-thiazolidinyl)carbonyl]amino]-1-((2S)-2-methyl)-oxoethyl]amino]-5-deoxy-2-O-nitro-1,4:3,6-dianhydro-L-iditol monohydrochloride]
BPs (min), period of action (anesthetised dogs; dogs, 3 mg/kg i.d.): > 30 min
BPs, difference to base value (anesthetised dogs; dogs, 3 mg/kg i.d.): -35 mmHg
Emax (thoracic aorta): 72%
